The source of these data is PubChem BioAssay AID2503 (Sanford-Burnham Center for Chemical Genomics, 2010).

One may read the IC50 as the point on the concentration scale where inhibition reaches its midpoint.

For the experiment, the system named is MCF-7/NOD2 cells, MDP-induced IL-8 secretion. Briefly: NOD2 pathway IL-8 secretion inhibitors – MCF-7/NOD2 cells, MDP stimulus, set 2, SAR follow-up (AID 2503).

Calls of active or inactive are those of the source. The rule behind the calls is not given here.

For the compound `C=CCn1c(SCCCc2ccccc2)nc2c1c(=O)[nH]c(=O)n2C`, the IC50 was > 25 µM (inactive). As for `Nc1nc2ccccc2n1Cc1ccc(Cl)cc1`, the IC50 was 4.59 µM. As to `O=C(Nc1nc2ccccc2n1Cc1ccc(Cl)cc1)c1ccco1`, the IC50 was > 25 µM (inactive).

Turning to `Oc1ccc(N=Nc2ccccc2C(F)(F)F)c2cccnc12`, the IC50 was > 25 µM (inactive).

Consider `Cc1ccc(S(=O)(=O)n2c(N)nc3ccccc32)cc1`, for which the half-maximal inhibitory concentration (IC50) was 17.3 µM. In the case of `C/C=C/Cn1c(SCc2ccccc2)nc2c1c(=O)[nH]c(=O)n2C`, the IC50 is > 25 µM (inactive). Then `CCCCn1c(SCC(=O)Nc2nnc(CC)s2)nc2c1c(=O)n(C)c(=O)n2C`, with > 25 µM (inactive); and `CCCCCn1c(SCCc2ccccc2)nc2c1c(=O)[nH]c(=O)n2C`, with > 25 µM (inactive); and `CCCCn1c(CN2CCN(c3cccc(Cl)c3)CC2)nc2c1c(=O)n(C)c(=O)n2C`, with > 25 µM (inactive). For `CC(C)n1c(SCCCc2ccccc2)nc2c1c(=O)[nH]c(=O)n2C`, the IC50 was > 25 µM (inactive). In the case of `C/C=C/Cn1c(SCc2ccc(Cl)cc2)nc2c1c(=O)[nH]c(=O)n2C`, the IC50 is > 25 µM (inactive). Then `Cn1c(=O)[nH]c(=O)c2c1nc([N+](=O)[O-])n2Cc1ccccc1`, with 1.31 µM. Consider `COCCn1c(SCCCc2ccccc2)nc2c1c(=O)[nH]c(=O)n2C`, for which the IC50 was > 25 µM (inactive). With `CCCCn1c(SCC(=O)c2ccccc2)nc2c1c(=O)[nH]c(=O)n2C` the figure was > 25 µM (inactive). With `CCC(=O)Nc1nc2ccccc2n1Cc1ccc(Cl)cc1` the figure was 13.2 µM; with `COc1ccc(C(=O)Cn2c(N)nc3ccccc32)cc1`, > 25 µM (inactive); with `CCCn1c(SCC(=O)Nc2nc3c(s2)CCCC3)nc2c1c(=O)n(C)c(=O)n2C`, > 25 µM (inactive).

With `Nc1nc2ccccc2n1CCOc1ccc(Cl)cc1`, the IC50 is > 25 µM (inactive). With `C/C=C/Cn1c(SCCCc2ccccc2)nc2c1c(=O)[nH]c(=O)n2C` the figure was > 25 µM (inactive); with `CC(C)Sc1nc2c(c(=O)[nH]c(=O)n2C)n1Cc1ccccc1`, > 25 µM (inactive).

For `CCCn1c(SCCc2ccccc2)nc2c1c(=O)[nH]c(=O)n2C`, the IC50 was > 25 µM (inactive). Then `Cc1ccc(S(=O)(=O)n2c(=S)[nH]c3cc(C)ccc32)cc1`, with > 25 µM (inactive); and `C/C(Cl)=C\Cn1c(NCCc2ccccc2)nc2c1c(=O)n(C)c(=O)n2C`, with > 25 µM (inactive).
